# From ChEMBL document CHEMBL1147443, “Regioselective oxidation of 2-amino-3-aroyl-4,5-dialkylthiophenes by DMSO” (Bioorg Med Chem Lett, 2004)
# Assays:
# [1] = Half life by its biological oxidation in presence of horse radish […]; format: ADME; conditions: horseradish, horseradish peroxidase
# [2] = Half life by its biological oxidation in presence of human liver microsomes; format: ADME, Microsome
half-life [1] [min],half-life [2] [min],SMILES
< 1,< 1,Nc1sc2c(c1C(=O)c1ccc(-c3ccccc3)cc1)CCCC2
< 1,< 1,Cc1sc(N)c(C(=O)c2cccc(C(F)(F)F)c2)c1C
1.33,< 1,Nc1sc2c(c1C(=O)c1ccc3ccccc3c1)CCCC2
